According to patent US9174948B2, “Desferrithiocin polyether analogues” (University of Florida Research Foundation, Inc., priority 2007, dated 2015):
Read-outs that look alike come from different tables or passages of the source.

Tests used:
[1] = tested on: Non-Iron-Overloaded Rodents; conditions: rats, po, 300 μmol/kg, historical data, cited from earlier work
[2] = tested on: Iron-Overloaded Cebus apella Primates; conditions: Cebus apella, po, 150 μmol/kg, historical data, cited from earlier work
[3] = tested on: Non-Iron-Overloaded Rodents; assay: Chelator-induced iron clearance in non-iron-overloaded, bile duct-cannulated rats; assay type: in vivo, rat (male Sprague-Dawley); conditions: po, 300 μmol/kg
Source text: Chelator-Induced Iron Clearance in Non-Iron-Overloaded Rodents. […] J. Med. Chem. 2006, 49, 2772-2783]. Recall that iron-clearing efficiency (ICE) is defined as (net iron excretion)/(total iron-binding capacity of the chelator), expressed as a percent. The relative ICE values of compounds 1 and 2 were in keeping with their log Papp values: the more lipophilic, the larger log Papp, the more efficient the chelator. […] However, the ICE trend was in keeping with the biliary ferrokinetics (FIG. 3) and liver concentration of the chelators, for example, 3>1 (FIG. 4).
Cannulation of Bile Duct in Non-Iron-Overloaded Rats has been described previously. […]. […] The urine sample(s) was taken at 24 h intervals. Sample collection and handling are as previously described [Bergeron, R. J., Streiff, R. R., Creary, E. A., Daniels, R. D., Jr., King, W., Luchetta, G., Wiegand, J., Moerker, T. and Peter, H. H. A Comparative Study of the Iron-Clearing Properties of Desferrithiocin Analogues with Desferrioxamine B in a Cebus Monkey Model. Blood 1993, 81, 2166-2173; Bergeron, R. J., Streiff, R. R., Wiegand, J., Vinson, J. R. T., Luchetta, G., Evans, K. M., Peter, H. and Jenny, H.-B. A Comparative Evaluation of Iron Clearance Models. Ann. N.Y. Acad. Sci. 1990, 612, 378-393].
(§1) In the iron-clearing experiments, the rats were given a single 300 μmol/kg dose of drugs 1-9 orally (po).
(§2) J. Med. Chem. 1999, 42, 2432-2440].

[4] = tested on: Iron-Overloaded Cebus apella Primates; assay: Chelator-induced iron clearance in iron-overloaded Cebus apella primates; assay type: in vivo; conditions: po, 75 μmol/kg
Source text: Chelator-Induced Iron Clearance in Iron-Overloaded Cebus apella Primates. The iron-clearance data for all three sets of ligands are presented (Table 2). […] J. Med. Chem. 2003, 46, 1470-1477]>1 (16.8±7.2%) [Bergeron, R. J., Wiegand, J., McManis, J. S., McCosar, B. H., Weimar, W. R., Brittenham, G. M. and Smith, R. E. Effects of C-4 Stereochemistry and C-4′ Hydroxylation on the Iron Clearing Efficiency and Toxicity of Desferrithiocin Analogues. J. Med. Chem. 1999, 42, 2432-2440], the increase is not significant. Although (S)-4′-(HO)-DADFT-PE (3) is the least lipophilic chelator in the 1-3 series, it is just as efficient (ICE, 25.4±7.4%) [Bergeron, R. J., Wiegand, J., McManis, J. S., Vinson, J. R. T., Yao, H., Bharti, N. and Rocca, J. R. (S)-4,5-Dihydro-2-(2-hydroxy-4-hydroxyphenyl)-4-methyl-4-thiazolecarboxylic Acid Polyethers: A Solution to Nephrotoxicity.
The monkeys (3.5-4 kg) were iron overloaded with intravenous iron dextran as specified in earlier publications to provide about 500 mg of iron per kg of body weight [Bergeron, R. J., Streiff, R. R., Wiegand, J., Luchetta, G., Creary, E. A. and Peter, H. H. A Comparison of the Iron-Clearing Properties of 1,2-Dimethyl-3-hydroxypyrid-4-one, 1,2-Diethyl-3-hydroxypyrid-4-one, and Deferoxamine. Blood 1992, 79, 1882-1890]; the serum transferrin iron saturation rose to between 70 and 80%. At least 20 half-lives, 60 d [Wood, J. K., Milner, P. F. and Pathak, U. N. The Metabolism of Iron-dextran Given as a Total-dose Infusion to Iron Deficient Jamaican Subjects. Br. J. Haematol. 1968, 14, 119-129], elapsed before any of the animals were used in experiments evaluating iron-chelating agents.
Fecal and urine samples were collected at 24-h intervals and processed as described previously [Bergeron, R. J., Streiff, R. R., Creary, E. A., Daniels, R. D., Jr., King, W., Luchetta, G., Wiegand, J., Moerker, T. and Peter, H. H. A Comparative Study of the Iron-Clearing Properties of Desferrithiocin Analogues with Desferrioxamine B in a Cebus Monkey Model. Blood 1993, 81, 2166-2173; Bergeron, R. J., Streiff, R. R., Wiegand, J., Vinson, J. R. T., Luchetta, G., Evans, K. M., Peter, H. and Jenny, H.-B. A Comparative Evaluation of Iron Clearance Models. Ann. N.Y. Acad. Sci. 1990, 612, 378-393; Bergeron, R. J., Wiegand, J. and Brittenham, G. M. HBED: A Potential Alternative to Deferoxamine for Iron-Chelating Therapy. Blood 1998, 91, 1446-1452]. Briefly, the collections began 4 d prior to the administration of the test drug and continued for an additional 5 d after the drug was given. Iron concentrations were determined by flame atomic absorption spectroscopy as presented in other publications [Bergeron, R. J., Streiff, R. R., Wiegand, J., Vinson, J. R. T., Luchetta, G., Evans, K. M., Peter, H. and Jenny, H.-B. A Comparative Evaluation of Iron Clearance Models. Ann. N.Y. Acad. Sci. 1990, 612, 378-393; Bergeron, R. J., Wiegand, J., Wollenweber, M., McManis, J. S., Algee, S. E. and Ratliff-Thompson, K. Synthesis and Biological Evaluation of Naphthyldesferrithiocin Iron Chelators. J. Med. Chem. 1996, 39, 1575-1581].
as §1, §2

SMILES	Iron-Clearing Efficiency (%) [1]	Iron-Clearing Efficiency (%) [2]	relative percentages of the iron excreted in the stool and urine [2]	also measured
C[C@]1(C(=O)O)CSC(c2cc(O)ccc2O)=N1 [Compound 4, (S)-2-(2,5-dihydroxyphenyl)-4,5-dihydro-4-methyl-4-thiazolecarboxylic acid]	1.0±0.9%	12.6±3.0%	–	–
COc1ccc(O)c(C2=N[C@@](C)(C(=O)O)CS2)c1 [Compound 5, (S)-4,5-dihydro-2-(2-hydroxy-5-methoxyphenyl)-4-methyl-4-thiazolecarboxylic acid]	6.3±1.2%	18.9±2.3%	–	–
COc1cccc(C2=N[C@@](C)(C(=O)O)CS2)c1O [Compound 8]	–	22.5±7.1%	–	Iron-Clearing Efficiency (%) ([3]; 48 h sample collection period): 12.4±3.5%
C[C@]1(C(=O)O)CSC(c2ccc(O)cc2O)=N1 [drawing 3]	1.1 ± 0.8%	–	–	relative percentages of the iron excreted in the bile and urine [1]: 100/0
COc1ccc(C2=N[C@@](C)(C(=O)O)CS2)c(O)c1 [drawing 4]	6.6 ± 2.8%	–	–	relative percentages of the iron excreted in the bile and urine [1]: 98/2
COCCOCCOCCOc1ccc(C2=N[C@@](C)(C(=O)O)CS2)c(O)c1 [drawing 5]	5.5 ± 1.9%	–	–	relative percentages of the iron excreted in the bile and urine [1]: 90/10
C[C@]1(C(=O)O)CSC(c2cc(O)ccc2O)=N1 [drawing 6]	1.0 ± 0.9%	–	–	relative percentages of the iron excreted in the bile and urine [1]: 99/1
COc1ccc(O)c(C2=N[C@@](C)(C(=O)O)CS2)c1 [drawing 7]	6.3 ± 1.2%	–	–	relative percentages of the iron excreted in the bile and urine [1]: 95/5
COCCOCCOCCOc1ccc(O)c(C2=N[C@@](C)(C(=O)O)CS2)c1 [drawing 8]	–	–	–	Iron-Clearing Efficiency (%) [3]: 8.0 ± 1.8%; relative percentages of the iron excreted in the bile and urine [3]: 98/2
C[C@]1(C(=O)O)CSC(c2cccc(O)c2O)=N1 [drawing 9]	–	–	–	Iron-Clearing Efficiency (%) [3]: 4.6 ± 0.9%; relative percentages of the iron excreted in the bile and urine [3]: 98/2
COc1cccc(C2=N[C@@](C)(C(=O)O)CS2)c1O [drawing 10]	–	–	–	Iron-Clearing Efficiency (%) ([3]; 48 h sample collection period): 12.4 ± 3.5%; relative percentages of the iron excreted in the bile and urine ([3]; 48 h sample collection period): 99/1
COCCOCCOCCOc1cccc(C2=N[C@@](C)(C(=O)O)CS2)c1O [drawing 11]	–	–	–	Iron-Clearing Efficiency (%) ([3]; 48 h sample collection period): 10.6 ± 4.4%; relative percentages of the iron excreted in the bile and urine ([3]; 48 h sample collection period): 95/5
C[C@]1(C(=O)O)CSC(c2ccc(O)cc2O)=N1 [drawing 12]	–	16.8 ± 7.2%	88/12	–
COc1ccc(C2=N[C@@](C)(C(=O)O)CS2)c(O)c1 [drawing 13]	–	24.4 ± 10.8%	91/9	–
COCCOCCOCCOc1ccc(C2=N[C@@](C)(C(=O)O)CS2)c(O)c1 [drawing 14]	–	25.4 ± 7.4%	96/4	–
C[C@]1(C(=O)O)CSC(c2cc(O)ccc2O)=N1 [drawing 15]	–	12.6 ± 3.0%	88/12	–
COc1ccc(O)c(C2=N[C@@](C)(C(=O)O)CS2)c1 [drawing 16]	–	18.9 ± 2.3%	94/6	–
COCCOCCOCCOc1ccc(O)c(C2=N[C@@](C)(C(=O)O)CS2)c1 [drawing 17]	–	–	–	Iron-Clearing Efficiency (%) [4]: 8.1 ± 2.8%; relative percentages of the iron excreted in the stool and urine [4]: 56/44
C[C@]1(C(=O)O)CSC(c2cccc(O)c2O)=N1 [drawing 18]	–	23.1 ± 5.9%	83/17	–
COc1cccc(C2=N[C@@](C)(C(=O)O)CS2)c1O [drawing 19]	–	22.5 ± 7.1%	91/9	–
COCCOCCOCCOc1cccc(C2=N[C@@](C)(C(=O)O)CS2)c1O [drawing 20]	–	–	–	Iron-Clearing Efficiency (%) [4]: 24.5 ± 7.6%; relative percentages of the iron excreted in the stool and urine [4]: 72/28
